Results from ChEMBL document CHEMBL4219090, “Synthesis and biological evaluation of polyhydroxylated oxindole derivatives as potential antileishmanial agent” (Bioorg Med Chem Lett, 2018).
Activity calls are given as the source filed them. No cut-off for these calls is given here.

Assays:
Leishmania donovani [1] = assay: Antileishmanial activity against Leishmania donovani MHOM/IN/1983/AG83 promastigotes transformed from splenic intracellular amastigotes of infected BALB/c mouse assessed as parasite survival at 8 uM after 48 hrs by MTT assay (reference value: 100%); assay type: functional; conditions: MHOM/IN/1983/AG83, 48 h
Leishmania donovani [2] = assay: Antileishmanial activity against Leishmania donovani MHOM/IN/1983/AG83 promastigotes transformed from splenic intracellular amastigotes of infected BALB/c mouse assessed as parasite survival at 32 uM after 48 hrs by MTT assay (reference value: 100%); assay type: functional; conditions: MHOM/IN/1983/AG83, 48 h
Leishmania donovani [3] = assay: Antileishmanial activity against Leishmania donovani MHOM/IN/1983/AG83 promastigotes transformed from splenic intracellular amastigotes of infected BALB/c mouse after 48 hrs by MTT assay; assay type: functional, organism-based; conditions: MHOM/IN/1983/AG83, 48 h
Leishmania donovani [4] = assay: Antileishmanial activity against Leishmania donovani MHOM/IN/1983/AG83 promastigotes transformed from splenic intracellular amastigotes of infected BALB/c mouse assessed as parasite survival at 16 uM after 48 hrs by MTT assay (reference value: 100%); assay type: functional; conditions: MHOM/IN/1983/AG83, 48 h
Leishmania donovani [5] = assay: (§1) Induction of apoptosis in Leishmania donovani MHOM/IN/1983/AG83 promastigotes transformed from splenic intracellular amastigotes of infected BALB/c mouse assessed as late apoptotic cells at 15 uM by Annexin V-PE/7-AAD staining-based flow cytometric analysis; assay type: functional, organism-based; conditions: TDE = time-dependent effect
Leishmania donovani [6] = assay: Induction of ROS generation in Leishmania donovani MHOM/IN/1983/AG83 promastigotes transformed from splenic intracellular amastigotes of infected BALB/c mouse at IC50 by H2DCFDA probe-based flow cytometric analysis; assay type: functional, organism-based; conditions: TDE = time-dependent effect
Leishmania donovani [7] = assay: Induction of apoptosis in Leishmania donovani MHOM/IN/1983/AG83 promastigotes transformed from splenic intracellular amastigotes of infected BALB/c mouse assessed as nuclei blebbing after 48 hrs by DAPI staining-based confocal laser scanning microscopic analysis; assay type: functional, organism-based
Leishmania donovani [8] = assay: Induction of apoptosis in Leishmania donovani MHOM/IN/1983/AG83 promastigotes transformed from splenic intracellular amastigotes of infected BALB/c mouse assessed as chromatin condensation after 48 hrs by DAPI staining-based confocal laser scanning microscopic analysis; assay type: functional, organism-based
Leishmania donovani [9] = assay: (§2) Cell cycle arrest in Leishmania donovani MHOM/IN/1983/AG83 promastigotes transformed from splenic intracellular amastigotes of infected BALB/c mouse assessed as accumulation at sub-G0/G1 phase at IC50 after 48 hrs by propidium iodide staining-based flow cytometric analysis (reference value: 2.61 +/- 0.33%); assay type: functional
[10] = Cytotoxicity against PHA-stimulated mouse splenocytes assessed as cell survival at 16 uM after 96 hrs by MTT assay (reference value: 100%); assay type: cell-based, Splenocyte; conditions: read-out: Survival
Leishmania donovani [11] = assay: Induction of ROS generation in Leishmania donovani MHOM/IN/1983/AG83 promastigotes transformed from splenic intracellular amastigotes of infected BALB/c mouse at IC50 measured at 6 hrs by H2DCFDA probe-based flow cytometric analysis relative to control; assay type: functional
Leishmania donovani [12] = assay: Antileishmanial activity against Leishmania donovani MHOM/IN/1983/AG83 promastigotes transformed from splenic intracellular amastigotes of infected BALB/c mouse assessed as parasite survival at 128 uM after 48 hrs by MTT assay (reference value: 100%); assay type: functional; conditions: MHOM/IN/1983/AG83, 48 h
Leishmania donovani [13] = assay: Induction of apoptosis in Leishmania donovani MHOM/IN/1983/AG83 promastigotes transformed from splenic intracellular amastigotes of infected BALB/c mouse assessed as viable cells at 15 uM after 24 hrs by Annexin V-PE/7-AAD staining-based flow cytometric analysis relative to control; assay type: functional
Leishmania donovani [14] = assay: as §1, with “early” for “late”, “uM after 48 hrs” for “uM”, “analysis (reference value: 10.98 +/- 1.22%)” for “analysis”; assay type: functional
Leishmania donovani [15] = assay: Induction of apoptosis in Leishmania donovani MHOM/IN/1983/AG83 promastigotes transformed from splenic intracellular amastigotes of infected BALB/c mouse assessed as early apoptotic cells at 15 uM by Annexin V-PE/7-AAD staining-based flow cytometric analysis; assay type: functional, organism-based; conditions: TDE = time-dependent effect
Leishmania donovani [16] = assay: Induction of apoptosis in Leishmania donovani MHOM/IN/1983/AG83 promastigotes transformed from splenic intracellular amastigotes of infected BALB/c mouse assessed as late apoptotic cells at 15 uM after 24 hrs by Annexin V-PE/7-AAD staining-based flow cytometric analysis relative to control; assay type: functional
Leishmania donovani [17] = assay: as §1, with “uM after 48 hrs” for “uM”, “analysis (reference value: 2.55 +/- 0.49%)” for “analysis”; assay type: functional
Leishmania donovani [18] = assay: Antileishmanial activity against Leishmania donovani MHOM/IN/1983/AG83 promastigotes transformed from splenic intracellular amastigotes of infected BALB/c mouse assessed as parasite survival at 64 uM after 48 hrs by MTT assay (reference value: 100%); assay type: functional; conditions: MHOM/IN/1983/AG83, 48 h
Leishmania donovani [19] = assay: Induction of apoptosis in Leishmania donovani MHOM/IN/1983/AG83 promastigotes transformed from splenic intracellular amastigotes of infected BALB/c mouse assessed as early apoptotic cells at 15 uM after 24 hrs by Annexin V-PE/7-AAD staining-based flow cytometric analysis relative to control; assay type: functional
Leishmania donovani [20] = assay: Induction of apoptosis in Leishmania donovani MHOM/IN/1983/AG83 promastigotes transformed from splenic intracellular amastigotes of infected BALB/c mouse assessed as necrotic cells at 15 uM after 48 hrs by Annexin V-PE/7-AAD staining-based flow cytometric analysis (reference value: 1.51%); assay type: functional
Leishmania donovani [21] = assay: Induction of apoptosis in Leishmania donovani MHOM/IN/1983/AG83 promastigotes transformed from splenic intracellular amastigotes of infected BALB/c mouse assessed as accumulation of lipid droplets in cytoplasm after 48 hrs by Nile red staining-based confocal laser scanning microscopic analysis; assay type: functional, organism-based
Leishmania donovani [22] = assay: Cell cycle arrest in Leishmania donovani MHOM/IN/1983/AG83 promastigotes transformed from splenic intracellular amastigotes of infected BALB/c mouse assessed as accumulation at sub-G0/G1 phase at IC50 by propidium iodide staining-based flow cytometric analysis; assay type: functional, organism-based; conditions: TDE = time-dependent effect
[23] = Cytotoxicity against PHA-stimulated mouse splenocytes assessed as cell survival at 128 uM after 96 hrs by MTT assay (reference value: 100%); assay type: cell-based, Splenocyte; conditions: read-out: Survival
Leishmania donovani [24] = assay: Induction of apoptosis in Leishmania donovani MHOM/IN/1983/AG83 promastigotes transformed from splenic intracellular amastigotes of infected BALB/c mouse assessed as viable cells at 15 uM after 48 hrs by Annexin V-PE/7-AAD staining-based flow cytometric analysis (reference value: 84.97%); assay type: functional
Leishmania donovani [25] = assay: Induction of nitric oxide generation in Leishmania donovani MHOM/IN/1983/AG83 amastigotes infected in BALB/c mouse peritoneal macrophages at IC50 by Griess reagent based analysis relative to control; assay type: functional
[26] = Cytotoxicity against PHA-stimulated mouse splenocytes assessed as cell survival at 32 uM after 96 hrs by MTT assay (reference value: 100%); assay type: cell-based, Splenocyte; conditions: read-out: Survival
[27] = Cytotoxicity against PHA-stimulated mouse splenocytes assessed as cell survival at 8 uM after 96 hrs by MTT assay (reference value: 100%); assay type: cell-based, Splenocyte; conditions: read-out: Survival
Leishmania donovani [28] = assay: Induction of apoptosis in Leishmania donovani MHOM/IN/1983/AG83 promastigotes transformed from splenic intracellular amastigotes of infected BALB/c mouse assessed as necrotic cells at 15 uM after 24 hrs by Annexin V-PE/7-AAD staining-based flow cytometric analysis relative to control; assay type: functional
Leishmania donovani [29] = assay: Antileishmanial activity against Leishmania donovani MHOM/IN/1983/AG83 amastigotes infected in BALB/c mouse peritoneal macrophages at 1 uM after 48 hrs by phase contrast microscopic analysis relative to control; assay type: functional
Leishmania donovani [30] = assay: as §2, with “24” for “48”; assay type: functional
[31] = Cytotoxicity against PHA-stimulated mouse splenocytes assessed as cell survival at 64 uM after 96 hrs by MTT assay (reference value: 100%); assay type: cell-based, Splenocyte; conditions: read-out: Survival
Leishmania donovani [32] = assay: Cell cycle arrest in Leishmania donovani MHOM/IN/1983/AG83 promastigotes transformed from splenic intracellular amastigotes of infected BALB/c mouse assessed as accumulation at G0/G1 phase at IC50 after 48 hrs by propidium iodide staining-based flow cytometric analysis (reference value: 81.06%); assay type: functional
Leishmania donovani [33] = assay: Antileishmanial activity against Leishmania donovani MHOM/IN/1983/AG83 promastigotes transformed from splenic intracellular amastigotes of infected BALB/c mouse after 48 hrs by […]; assay type: functional, organism-based; conditions: MHOM/IN/1983/AG83, 48 h

## COc1ccc(CN2C(=O)C(=C(c3ccc(O)cc3)c3ccc(O)cc3)c3ccccc32)cc1
Leishmania donovani [1]
  survival at 8 µM: 96.4%
Leishmania donovani [2]
  survival at 32 µM: 66.1%
Leishmania donovani [3]
  IC50: 47.2 µM
Leishmania donovani [4]
  survival at 16 µM: 81%

## COc1ccc(CN2C(=O)C(=C(c3ccc(O)cc3)c3ccc(O)cc3)c3cc(/C=C/c4ccc(OC)c(OC)c4)ccc32)cc1
Leishmania donovani [1]
  survival at 8 µM: 79.2%
Leishmania donovani [2]
  survival at 32 µM: 53.7%
Leishmania donovani [3]
  IC50: 31 µM
Leishmania donovani [4]
  survival at 16 µM: 70.6%

## O=C1C(=C(c2ccc(O)cc2)c2ccc(O)cc2)c2ccccc2N1Cc1ccc(O)cc1
Leishmania donovani [1]
  survival at 8 µM: 98.3%
Leishmania donovani [2]
  survival at 32 µM: 92%
Leishmania donovani [3]
  IC50: 200 µM
Leishmania donovani [4]
  survival at 16 µM: 96.7%

## COc1ccc(CN2C(=O)C(=C(c3ccc(O)cc3)c3ccc(O)cc3)c3cc(/C=C/c4ccc(C)c(C)c4)ccc32)cc1
Leishmania donovani [1]
  survival at 8 µM: 97.2%
Leishmania donovani [2]
  survival at 32 µM: 93.7%
Leishmania donovani [3]
  IC50: 225 µM
Leishmania donovani [4]
  survival at 16 µM: 95.5%

## O=C1C(=C(c2ccc(O)cc2)c2ccc(O)cc2)c2cc(/C=C/c3ccc(O)c(O)c3)ccc2N1Cc1ccc(O)cc1
Leishmania donovani [5]
  Activity: Tde
Leishmania donovani [6]
  Activity: Tde
Leishmania donovani [7]
  Activity: Active
Leishmania donovani [8]
  Activity: Active
Leishmania donovani [9]
  Activity: 8.86%
[10]
  viability at 96 h, 16 µM: 92.3%
Leishmania donovani [1]
  survival at 8 µM: 96.2%
Leishmania donovani [11]
  fold change (FC): >3
Leishmania donovani [2]
  survival at 32 µM: 31.6%
Leishmania donovani [12]
  survival at 128 µM: 5.42%
Leishmania donovani [13]
  Activity: 45.2%
Leishmania donovani [14]
  Activity: 42.08%
Leishmania donovani [15]
  Activity: Tde
Leishmania donovani [16]
  Activity: 14.76%
Leishmania donovani [17]
  Activity: 15.39%
Leishmania donovani [18]
  survival at 64 µM: 17.9%
Leishmania donovani [19]
  Activity: 35.01%
Leishmania donovani [20]
  Activity: 4.09%
Leishmania donovani [21]
  Activity: Active
Leishmania donovani [22]
  Activity: Tde
[23]
  viability at 96 h, 128 µM: 85.2%
Leishmania donovani [24]
  Activity: 38.43%
Leishmania donovani [25]
  fold change (FC): 3
[26]
  viability at 96 h, 32 µM: 90.5%
[27]
  viability at 96 h, 8 µM: 96.6%
Leishmania donovani [3]
  IC50: 15 µM
Leishmania donovani [28]
  Activity: 5.03%
Leishmania donovani [29]
  Activity: 50%
Leishmania donovani [4]
  survival at 16 µM: 46.7%
Leishmania donovani [30]
  Activity: 6.79 - 6.97%
[31]
  viability at 96 h, 64 µM: 87.3%
Leishmania donovani [32]
  Activity: 71.37%

## CCCCCCCCCCCCCCCCOP(=O)([O-])OCC[N+](C)(C)C [MILTEFOSINE]
Leishmania donovani [33]
  IC50: 21 µM
Leishmania donovani [3]
  IC50: 21 µM

## COc1ccc(CN2C(=O)C(=C(c3ccc(O)cc3)c3ccc(O)cc3)c3cc(/C=C/c4ccc(F)c(F)c4)ccc32)cc1
Leishmania donovani [1]
  survival at 8 µM: 97.5%
Leishmania donovani [2]
  survival at 32 µM: 93.2%
Leishmania donovani [3]
  IC50: 220 µM
Leishmania donovani [4]
  survival at 16 µM: 96%
